Data: patent US20260200939A1, “MOLECULAR GLUE DEGRADER COMPOUNDS AND USES THEREOF” (Novartis AG, priority 2022, published 2026)

Tests used:
BRD4 long = biological target: T1, BRD4 long (Homo sapiens, UniProt O60885); test: BRD4 (long) degradation assay, Western blotting; type: cell-based; conditions: HEK293T cells
T1 construct: endogenous in cells; host or cells: HEK293T
Summary of the method: (§1)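 Cell lines were grown at 37° C with 5% CO2 (HEK293T and C33A in DMEM, A549 in F-12K, 22RV1, LNCaP and Mino in RPMI-1640, K562 and MV-4-11 in IMDM, all with 10% FBS). Lysates were BCA-normalized, then SDS/PAGE Western blots were probed with target-specific antibodies and read by IR680/IR800 fluorescent secondaries on Li-Cor.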

Recombinant RNF126 = biological target: T2, Recombinant RNF126 (Homo sapiens, UniProt Q9BV68); test: RNF126 Binding Assay, gel-based ABPP
T2 construct: FLAG (C); host or cells: HEK293T
Summary of the method: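 FLAG-tagged human RNF126, expressed in HEK293T and purified on anti-FLAG resin, was pretreated with DMSO or covalent ligand for 30 min at 37 °C in PBS. IA-rhodamine was then added for 1 h at RT in the dark. Probe labelling was read by SDS-PAGE in-gel fluorescence.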

HEK293T cells = test: Quantitative TMT proteomic profiling in HEK293T cells; type: cell-based
Description: Cells were treated with either DMSO vehicle or compound (Compound 130, 1 μM) for 24 h and lysate was prepared as described above. Briefly, 25-100 μg protein from each sample was reduced, alkylated and tryptically digested overnight. Individual samples were then labeled with isobaric tags using commercially available TMTsixplex (Thermo Fisher Scientific, P/N 90061) kits, in accordance with the manufacturer's protocols. Tagged samples (20 μg per sample) were combined, dried with SpeedVac, resuspended with 300 μL 0.1% TFA in H2O, and fractionated using high pH reversed-phase peptide fractionation kits (Thermo Scientific, P/N 84868) according to manufacturer's protocol. Fractions were dried with SpeedVac, resuspended with 50 μL 0.1% FA in H2O, and analyzed by LC-MS/MS as described below.
Quantitative TMT-based proteomic analysis was performed as previously described using a Thermo Eclipse with FAIMS LC-MS/MS (King, E. A. et al. Chemoproteomics-Enabled Discovery of a Covalent Molecular Glue Degrader Targeting NF-κB. 2022.05.18.492542 Preprint at https://doi.org/10.1101/2022.05.18.492542 (2022)). […] Only peptide-to-spectrum matches that are unique assignments to a given identified protein within the total dataset are considered for protein quantitation. […]

BRD4 short = biological target: T3, BRD4 short (Homo sapiens, UniProt O60885); test: BRD4 (short) degradation assay, Western blotting; type: cell-based; conditions: HEK293T cells
T3 construct: endogenous in cells; host or cells: HEK293T
Summary of the method: as §1

BTK = biological target: T4, BTK (Homo sapiens, UniProt Q06187); test: BTK degradation in MINO lymphoma cancer cells, Western blotting; type: cell-based
T4 construct: endogenous in cells; host or cells: Mino
Description: C33A cells were purchased from American Type Culture Collection (ATCC) and were cultured in Dulbecco's Modified Eagle Medium (DMEM) containing 10% (v/v) fetal bovine serum (FBS) and maintained at 37° C. with 5% CO2. 22RV1 cells were purchased from the ATCC and were cultured in RPMI-1640 Medium containing 10% (v/v) FBS and maintained at 37° C. with 5% CO2. HEK293T cells were obtained from the UC Berkeley Cell Culture Facility and were cultured in DMEM containing 10% (v/v) FBS and maintained at 37° C. with 5% CO2. K562 cells were obtained from the UC Berkeley Cell Culture Facility and were cultured in Iscove's Modified Dulbecco's Medium (IMDM) containing 10% (v/v) FBS and maintained at 37° C. with 5% CO2. MV-4-11 cells were obtained from the ATCC and were cultured in IMDM containing 10% (v/v) FBS and maintained at 37° C. with 5% CO2. A549 cells were obtained from the ATCC and were cultured in F-12K Medium containing 10% (v/v) FBS and maintained at 37° C. with 5% CO2. Mino cells were obtained from the ATCC and were cultured in RPMI-1640 Medium containing 10% (v/v) FBS and maintained at 37° C. with 5% CO2. […]
Cells were washed twice with cold PBS, scraped, and pelleted by centrifugation (700 g, 5 min, 4° C.). […] Proteome concentrations were determined using BCA assay and lysate was diluted to appropriate working concentrations. […]

T2 sequence (Q9BV68 whole entry): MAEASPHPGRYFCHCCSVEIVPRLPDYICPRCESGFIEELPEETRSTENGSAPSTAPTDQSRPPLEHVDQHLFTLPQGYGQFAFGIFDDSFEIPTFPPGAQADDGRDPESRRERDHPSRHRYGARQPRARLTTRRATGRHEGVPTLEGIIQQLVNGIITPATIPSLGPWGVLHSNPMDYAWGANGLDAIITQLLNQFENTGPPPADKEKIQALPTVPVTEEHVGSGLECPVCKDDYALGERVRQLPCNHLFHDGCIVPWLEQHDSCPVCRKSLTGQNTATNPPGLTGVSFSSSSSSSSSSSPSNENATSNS
T4 sequence (Q06187 whole entry): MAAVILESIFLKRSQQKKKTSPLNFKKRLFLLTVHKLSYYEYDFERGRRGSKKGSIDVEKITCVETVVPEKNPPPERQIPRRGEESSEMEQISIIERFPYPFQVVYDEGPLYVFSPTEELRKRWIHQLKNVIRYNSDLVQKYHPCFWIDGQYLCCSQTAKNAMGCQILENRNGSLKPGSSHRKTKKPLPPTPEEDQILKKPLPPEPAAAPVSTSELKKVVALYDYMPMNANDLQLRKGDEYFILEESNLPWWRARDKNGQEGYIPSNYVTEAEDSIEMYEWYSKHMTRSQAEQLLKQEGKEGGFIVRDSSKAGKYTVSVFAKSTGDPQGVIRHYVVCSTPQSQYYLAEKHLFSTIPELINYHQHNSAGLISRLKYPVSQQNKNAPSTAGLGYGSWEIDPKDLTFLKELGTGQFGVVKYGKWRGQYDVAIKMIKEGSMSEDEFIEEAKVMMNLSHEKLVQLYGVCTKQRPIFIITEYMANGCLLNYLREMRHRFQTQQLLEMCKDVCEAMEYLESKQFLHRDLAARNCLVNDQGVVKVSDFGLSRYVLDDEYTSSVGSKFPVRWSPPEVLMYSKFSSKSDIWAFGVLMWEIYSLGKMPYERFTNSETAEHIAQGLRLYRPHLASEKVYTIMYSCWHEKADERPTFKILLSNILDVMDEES

| Structure (SMILES) | degradation of BRD4 long isoform, in words (BRD4 long) | binding to RNF126 (gel-based ABPP), in words (Recombinant RNF126) | selectivity of degradation by quantitative proteomic profiling (HEK293T cells) | degradation of BRD4 short isoform, in words (BRD4 short) | degradation of BTK, in words (BTK) |
| --- | --- | --- | --- | --- | --- |
| COc1ccc(C(=O)/C=C/C(=O)N2CCN(C(=O)C[C@@H]3N=C(c4ccc(Cl)cc4)c4c(sc(C)c4C)-n4c(C)nnc43)CC2)cc1 [Compound 130, (S,E)-1-(4-(2-(4-(4-chlorophenyl)-2,3,9-trimethyl-6H-thieno[3,2-f][1,2,4]triazolo[4,3-a][1,4]diazepin-6-yl)acetyl)piperazin-1-yl)-4-(4-methoxyphenyl)but-2-ene-1,4-dione] | degradation of both the long and short isoforms of BRD4 in HEK293T cells in a dose-responsive, time-dependent, and proteasome-dependent manner | potent binding | relatively selective degradation of BRD4 | degradation of both the long and short isoforms of BRD4 in HEK293T cells in a dose-responsive, time-dependent, and proteasome-dependent manner |  |
| COc1ccc(C(=O)/C=C/C(=O)N2CCC[C@@H](n3nc(-c4ccc(Oc5ccccc5)cc4)c4c(N)ncnc43)C2)cc1 [Compound 131] |  | potent binding |  |  | degradation of BTK in MINO lymphoma cancer cells |
